US10918768B2, “Human skin equivalents expressing exogenous polypeptides” (Stratatech Corporation, priority 2003, dated 2021)

Tested on: Staphylococcus carnosus
Experiment: antimicrobial activity assay (viable bacteria, CFU/ml)
Assay type: cell-based
Conditions: synthetic peptide standard curve; 37° C. for 1.5 hr
Protocol: The antimicrobial activity assay employed Escherichia coli and Staphylococcus carnosus and is a modification of the protocol described by Porter and coworkers (Porter, E. M., et al., Infect Immun, 1997. 65(6): p. 2396-401). Briefly, gram-positive or gram-negative bacteria are grown overnight. The following day the test organisms are subcultured for 2.5 hr and working dilutions of 10^4 bacteria/ml for Escherichia coli or 10^5 bacteria/ml of Staphylococcus carnosus in 10 mM sodium phosphate (pH 7.4)-1% TSB are created. All the reactions mix 50 μl of experimental reagent (lysis, supernatants or purified protein) with 50 μl of bacterial suspension. These reactions are then incubated at 37° C. for 1.5 hr. The reactions are diluted 100-fold in 10 mM sodium phosphate (pH 7.4)-1% TSB and plated on TSB plates using a spiral plater (Spiral Biotech, Norwood, Mass.). The plates are then incubated for 12 to 16 hr at 37° C. Colonies on these plates are counted and the number of viable bacteria is determined and expressed as colony forming units per milliliter (CFU/ml).
This example describes the development of an assay to detect LL-37 antimicrobial activity. […] A standard curve for the antimicrobial activity of LL-37 was determined for gram-positive bacteria, S. carnosus using this synthetic peptide.

Compound: CC[C@H](C)[C@H](NC(=O)[C@H](CCCCN)NC(=O)[C@H](CCC(=O)O)NC(=O)[C@H](CCCCN)NC(=O)[C@H](CO)NC(=O)[C@H](CCCCN)NC(=O)[C@H](CCCNC(=N)N)NC(=O)[C@H](Cc1ccccc1)NC(=O)[C@H](Cc1ccccc1)NC(=O)[C@H](CC(=O)O)NC(=O)CNC(=O)[C@H](CC(C)C)NC(=O)[C@@H](N)CC(C)C)C(=O)NCC(=O)N[C@@H](CCCCN)C(=O)N[C@@H](CCC(=O)O)C(=O)N[C@@H](Cc1ccccc1)C(=O)N[C@@H](CCCCN)C(=O)N[C@@H](CCCNC(=N)N)C(=O)N[C@H](C(=O)N[C@H](C(=O)N[C@@H](CCC(N)=O)C(=O)N[C@@H](CCCNC(=N)N)C(=O)N[C@H](C(=O)N[C@@H](CCCCN)C(=O)N[C@@H](CC(=O)O)C(=O)N[C@@H](Cc1ccccc1)C(=O)N[C@@H](CC(C)C)C(=O)N[C@@H](CCCNC(=N)N)C(=O)N[C@@H](CC(N)=O)C(=O)N[C@@H](CC(C)C)C(=O)N[C@H](C(=O)N1CCC[C@H]1C(=O)N[C@@H](CCCNC(=N)N)C(=O)N[C@H](C(=O)N[C@@H](CCC(=O)O)C(=O)N[C@@H](CO)C(=O)O)[C@@H](C)O)C(C)C)[C@@H](C)CC)C(C)C)[C@@H](C)CC [LL-37]
- concentration necessary to kill 50% (LC50) of S. carnosus: 0.9 µg/mL
